Measurements: patent US20050026189A1, “Microbial operons” (priority 2003, published 2005)
≈ marks a conversion by molar mass, not a printed value. Read-outs that look alike come from different tables or passages of the source. Positions of bridges follow the written chain, without caps; N, C: chain ends. Non-standard residues stand in square brackets, D forms with d. Residues, ends and D or L forms follow the SMILES beside them. *: point of attachment. Ileψ(thiazoline)Cys = CC[C@H](C)[C@H](N)C1=N[C@H](C(=O)*)CS1; dOrn = NCCC[C@@H](N)C(=O)O

Assays:
[1] = tested on: E. coli transcribing antisense RNA to rplL and rplJ (AS-rplL/J); assay: microbe, parasite or virus in culture; format: cell-based; details: for Fold Increase in Sensitivity: IC50 without IPTG versus IC50 with 400 μM IPTG; for Sensitivity Increased?: statistically significant decrease in the IC50 value in the presence of inducer (IPTG); for IC50: Escherichia coli
Protocol: The effectiveness of the above assays was validated using proliferation-required genes from E. coli which were identified using procedures similar to those described above. Antibiotics of various chemical classes and modes of action were purchased from Sigma Chemicals (St. Louis, Mo.). Stock solutions were prepared by dissolving each antibiotic in an appropriate aqueous solution based on information provided by the manufacturer. The final working solution of each antibiotic contained no more than 0.2% (w/v) of any organic solvent. To determine their potency against a bacterial strain engineered for transcription of an antisense comprising a nucleotide sequence complementary to a proliferation-required 50S ribosomal protein, each antibiotic was serially diluted two- or three-fold in growth medium supplemented with the appropriate antibiotic for maintenance of the antisense construct. At least ten dilutions were prepared for each antibiotic. 25 μL aliquots of each dilution were transferred to discrete wells of a 384-well microplate (the assay plate) using a multi-channel pipette. Quadruplicate wells were used for each dilution of an antibiotic under each treatment condition (plus and minus inducer). Each assay plate contained twenty wells for cell growth controls (growth medium replacing antibiotic), ten wells for each treatment (plus and minus inducer, in this example IPTG). Assay plates were usually divided into the two treatments: half the plate containing induced cells and an appropriate concentrations of inducer (in this example IPTG) to maintain the state of induction, the other half containing non-induced cells in the absence of IPTG.
Cells for the assay were prepared as follows. Bacterial cells containing a construct, from which transcription of antisense nucleic acid comprising a nucleotide sequence complementary to rplL and rplJ (AS-rplL/J), which encode proliferation-required 50S ribosomal subunit proteins, is inducible in the presence of IPTG, were grown into exponential growth (OD600 0.2 to 0.3) and then diluted 1:100 into fresh medium containing either 400 μM or 0 μM inducer (IPTG). These cultures were incubated at 37° C. for 2.5 hr. After a 2.5 hr incubation, induced and non-induced cells were respectively diluted into an assay medium at a final OD600 value of 0.0004. The medium contained an appropriate concentration of the antibiotic for the maintenance of the antisense construct. In addition, the medium used to dilute induced cells was supplemented with 800 μM IPTG so that addition to the assay plate would result in a final IPTG concentration of 400 μM. Induced and non-induced cell suspensions were dispensed (25 μl/well) into the appropriate wells of the assay plate as discussed previously. The plate was then loaded into a plate reader, incubated at constant temperature, and cell growth was monitored in each well by the measurement of light scattering at 595 nm. Growth was monitored every 5 minutes until the cell culture attained a stationary growth phase. For each concentration of antibiotic, a percentage inhibition of growth was calculated at the time point corresponding to mid-exponential growth for the associated control wells (no antibiotic, plus or minus IPTG). For each antibiotic and condition (plus or minus IPTG), a plot of percent inhibition versus log of antibiotic concentration was generated and the IC50 determined.

[2] = tested on: Staphylococcus aureus cells transcribing antisense to gyrB; assay: Antibiotic potency in Staphylococcus aureus cells with and without xylose-induced antisense to the Beta subunit of DNA gyrase (FIG. 10); format: cell-based; details: 12 mM xylose versus 0 mM xylose; antisense to β subunit of gyrase
Protocol: Antibiotics of various chemical classes and modes of action were purchased from chemical suppliers, for example Sigma Chemicals (St. Louis, Mo). Stock solutions were prepared by dissolving each antibiotic in an appropriate aqueous solution based on information provided by the manufacturer. The final working solution of each antibiotic contained no more than 0.2% (w/v) of any organic solvent.
To determine its potency against a bacterial strain containing an antisense nucleic acid comprising a nucleotide sequence complementary to the nucleotide sequence encoding the Beta subunit of DNA gyrase (which is required for proliferation) under the control of a xylose inducible promoter, each antibiotic was serially diluted two- or three-fold in growth medium supplemented with the appropriate antibiotic for maintenance of the antisense construct. At least ten dilutions were prepared for each antibiotic.
Aliquots (25 μL) of each dilution were transferred to discrete wells of a 384-well microplate (the assay plate) using a multi-channel pipette. Quadruplicate wells were used for each dilution of an antibiotic under each treatment condition (plus and minus inducer). Each assay plate contained twenty wells for cell growth controls (growth medium, no antibiotic), ten wells for each treatment (plus and minus inducer, xylose, in this example). Half the assay plate contained induced cells (in this example Staphylococcus aureus cells) and appropriate concentrations of inducer (xylose, in this example) to maintain the state of induction while the other half of the assay plate contained non-induced cells maintained in the absence of inducer.
Cells of a bacterial clone containing a construct in which transcription of antisense comprising a nucleotide sequence complementary to the sequence encoding the Beta subunit of DNA gyrase under the control of the xylose inducible promoter (S1M10000001F08) were grown into exponential growth (OD600 0.2 to 0.3) and then diluted 1:100 into fresh medium containing either 12 mM or 0 mM inducer (xylose). These cultures were incubated at 37° C. for 2.5 hr. The presence of inducer (xylose) in the medium initiates and maintains production of antisense RNA from the antisense construct. After a 2.5 hr incubation, induced and non-induced cells were respectively diluted into an assay medium containing an appropriate concentration of the antibiotic for the maintenance of the antisense construct. In addition, medium used to dilute induced cells was supplemented with 24 mM xylose so that addition to the assay plate would result in a final xylose concentration of 12 mM. The cells were diluted to a final OD600 value of 0.0004.
Induced and non-induced cell suspensions were dispensed (25 μl/well) into the appropriate wells of the assay plate as discussed previously. The plate was then loaded into a plate reader and incubated at constant temperature while cell growth was monitored in each well by the measurement of light scattering at 595 nm. Growth was monitored every 5 minutes until the cell culture attained a stationary growth phase. For each concentration of antibiotic, a percentage inhibition of growth was calculated at the time point corresponding to mid-exponential growth for the associated control wells (no antibiotic, plus or minus xylose). For each antibiotic and condition (plus or minus xylose), plots of percent inhibition versus Log of antibiotic concentration were generated and IC50s, determined.

| Compound | Fold Increase in Sensitivity [1] [Fold] | Sensitivity Increased? [1] | potency in induced cells as compared to uninduced cells [2] | also measured |
| --- | --- | --- | --- | --- |
| CN(C)c1ccc(O)c2c1C[C@H]1C[C@H]3[C@H](N(C)C)C(O)=C(C(N)=O)C(=O)[C@@]3(O)C(O)=C1C2=O [Minocycline] | 172 |  |  |  |
| CC1COc2c(N3CCN(C)CC3)c(F)cc3c(=O)c(C(=O)O)cn1c23 (stereo not drawn) [Ofloxacin] | 1 |  |  |  |
| [H]/N=C(/N)N[C@H]1[C@H](O)[C@@H](O)[C@H](O[C@@H]2O[C@@H](C)[C@](O)(C=O)[C@H]2O[C@@H]2O[C@@H](CO)[C@H](O)[C@@H](O)[C@@H]2NC)[C@@H](N/C(N)=N\[H])[C@@H]1O [Streptomycin] | 70 | Yes |  |  |
| CO/N=C(\C(=O)N[C@@H]1C(=O)N2C(C(=O)O)=C(COC(C)=O)CS[C@H]12)c1csc(N)n1 [Cefotaxime] | 1 | No | not significantly different |  |
| CC[C@H](C)[C@H](N)C1=N[C@H](C(=O)N[C@@H](CC(C)C)C(=O)N[C@H](CCC(=O)O)C(=O)N[C@H](C(=O)N[C@H]2CCCCNC(=O)[C@H](CC(N)=O)NC(=O)[C@@H](CC(=O)O)NC(=O)[C@H](Cc3cnc[nH]3)NC(=O)[C@@H](Cc3ccccc3)NC(=O)[C@H]([C@@H](C)CC)NC(=O)[C@@H](CCCN)NC2=O)[C@@H](C)CC)CS1 [Bacitracin] ({Ileψ(thiazoline)Cys}-L[dE]IK[dOrn]I[dF]H[dD]N; lactam 4-C) | 1 | No |  |  |
| CC(=O)O[C@H]1C[C@@]2(C)[C@@H](C[C@@H](O)[C@H]3[C@@]4(C)CC[C@@H](O)[C@@H](C)[C@@H]4CC[C@@]32C)/C1=C(\CCC=C(C)C)C(=O)O [Fusidic acid] | 94 | Yes | not significantly different |  |
| COc1cc(Cc2cnc(N)nc2N)cc(OC)c1OC [Trimethoprim] |  |  | not significantly different |  |
| CO[C@@]1(NC(=O)Cc2cccs2)C(=O)N2C(C(=O)O)=C(COC(N)=O)CS[C@@H]21 [Cefoxitin] | 1 | No | not significantly different |  |
| O=C(N[C@H](CO)[C@H](O)c1ccc([N+](=O)[O-])cc1)C(Cl)Cl [Chloramphenicol] | 307 | Yes |  |  |
| C[C@H]1c2cccc(O)c2C(=O)C2=C(O)[C@]3(O)C(=O)C(C(N)=O)=C(O)[C@@H](N(C)C)[C@@H]3[C@@H](O)[C@@H]21 [Doxycycline] | 15 |  |  |  |
| CN[C@H](CC(C)C)C(=O)N[C@H]1C(=O)N[C@@H](CC(N)=O)C(=O)N[C@H]2C(=O)N[C@H]3C(=O)N[C@H](C(=O)N[C@H](C(=O)O)c4cc(O)cc(O)c4-c4cc3ccc4O)[C@H](O)c3ccc(c(Cl)c3)Oc3cc2cc(c3O[C@@H]2O[C@H](CO)[C@@H](O)[C@H](O)[C@H]2O[C@H]2C[C@](C)(N)[C@H](O)[C@H](C)O2)Oc2ccc(cc2Cl)[C@H]1O [Vancomycin] | 2 | No | not significantly different | IC50 ([1]; read-out: IC50 (+IPTG)): 72.5 µg/mL (≈ 50.1 µM); IC50 ([1]; read-out: IC50 (−IPTG)): 145 µg/mL (≈ 100 µM) |
| CN[C@@H]1[C@H](O)[C@H](NC)[C@H]2O[C@@]3(O)C(=O)C[C@@H](C)O[C@H]3O[C@@H]2[C@H]1O [Spectinomycin] |  | Yes |  |  |
| CCC[C@@H]1C[C@@H](C(=O)N[C@@H]([C@H]2O[C@H](SC)[C@H](O)[C@@H](O)[C@H]2O)[C@@H](C)O)N(C)C1 [Lincomycin] | 145 | Yes | not significantly different |  |
| Gentamicin | 141 | Yes |  | IC50 (+IPTG) ([1]; induced cells, 400 μM IPTG): 0.01919 µg/mL; IC50 (−IPTG) ([1]; non-induced cells, 0 μM IPTG): 2.715 µg/mL |
| NC[C@H]1O[C@H](O[C@H]2[C@H](O)[C@@H](O[C@H]3O[C@H](CO)[C@@H](O)[C@H](N)[C@H]3O)[C@H](N)C[C@@H]2N)[C@H](N)C[C@@H]1O [Tobramycin] | 51 | Yes | not significantly different |  |
| CN(C)[C@@H]1C(O)=C(C(N)=O)C(=O)[C@@]2(O)C(O)=C3C(=O)c4c(O)cccc4[C@@](C)(O)[C@H]3C[C@@H]12 [Tetracycline] | 109 |  |  |  |
